Values joined by “and” are separate entries in the source; they are usually repeats but may differ in a detail not shown here. Equal entries are not always repeated.
Key:
[1] = tested on: free living nematodes in soil; settings: 24 hour exposure; cited from earlier work
citrus nematode = settings: 0.5 hour exposure, same concentration; cited from earlier work
Root-Knot larvae (J2) = experiment: Effect of nematicides (Oxamyl, Thiodicarb) on Root-Knot larvae (J2) in vitro; set-up: species or system M. incognita; settings: for Root-Knot larvae (J2) Alive / Root-Knot larvae (J2) Dead: room temperature, one replicate per line; for Root-Knot larvae (J2) Alive / Root-Knot larvae (J2) Dead / Root-Knot larvae (J2) Alive, non-mobile: 2 days; for Root-Knot larvae (J2) Alive, non-mobile: alive larvae given as non-mobile
Description: M. incognita eggs collected from tomato cultures by NaOC1 extraction (Hussey and Barker, 1973). Briefly, six to twelve week old infected tomato roots were cut into 1-2 segment. Root segments were shacked vigorously in 200 ml of a 0.5% Na O Cl solution for 4 min. Then, the Na O Cl solution was passed quickly through a 200-mesh (75-μm), nested over a 500-mesh sieve to collect freed eggs. The a 500-mesh sieve with eggs was quickly placed under a stream of cold water to remove residual Na O cl and rinsed several times. About 50 ml queous suspension of eggs was collected and number of eggs per unit volume will be counted. The egg suspension was allowed to sit at room temperature for 4 days. The hatching juveniles were collected and used in the subsequent experiments.
Determine the efficient concentration of nematicides (Oxamyl and Thidiocarb) that kill or suppress Root-Knot Larvae.
M. incognita eggs collected from tomato cultures by NaOC1 extraction (Hussey & Barker, Plant Disease Reporter. 57:1025-1028 (1973)). Egg suspension was incubated at room temperature until larvae were hatched (4-5 days). The juveniles (J2) were counted and evaluated for activity/mobility for the duration of the study. Four different concentrations of both nematicides (Oxamyl and Thiodicarb) were used to assess their efficacy in killing the nematodes. These were untreated control, 200 ug, 1 mg, 2 mg, and 10 mg. Three replicates of the each concentration were mixed with J2 suspensions and incubated at room temperature for 2 days.
We studied the efficiency of Oxamyl; 200 ug/ml and 100 ug/ml in suppression of J2. […] We used 100 ug of Oxamyl in subsequent studies with liposomes.

root-knot nematodes = experiment: Nematicidal activity of Oxamyl-liposome formulation on root-knot nematodes; type: in vivo, M. incognita; settings: where oxamyl was added (oxamyl-liposome test, FIG. 1)
Description: Liposomes having an aqueous core and phospholipid bilayers were prepared using the thin-film dehydration-rehydration method obtaining, multilamilar vesicles (MLVs) and small unilamellar vesicles (SUVs) (Bangham et al., J. Mol. Biol. 13:238-252 (1965); Gosangari & Watkin, Pharm Dev Technol. 17:383-8 (2012)). Using thin-film hydration method, briefly, required amounts of lipids [1,2-Dipalmitoyl-sn-glycero-3-phosphocholine (DPPC) liposomes and 1, 2-distearoyl-snglycero- 3-phosphocholine (DSPC)] were dissolved in chloroform, and a thin film will be formed on the inner side of the round bottom flask, by evaporating the solvent under vacuum using a rotavapor. The lipid film formed was stored overnight in vacuum desiccator to eliminate traces of chloroform. The film was then hydrated at 58° C., above the Tc of DSPC, using 10 mL of phosphate-buffered saline (PBS, 20 mM […], 150 mM NaCl, pH 7.0) containing different concentration of Oxamyl. […] The unencapsulated oxamyl was then separated using Sephadex G-50 macrospin columns and the encapsulation efficiency was calculated spectrophotometrically at 280 nm. […]
M. incognita eggs collected from tomato cultures by NaOC1 extraction (Hussey & Barker, Plant Disease Reporter. 57:1025-1028 (1973)). […] The juveniles (J2) were counted and evaluated for activity/mobility for the duration of the study. […]

[2] = Abamectin or liposomal abamectin applied to soil prior to planting: gall formation, root necrosis, root length; type: in vivo
Description: Abamectin at 5μg or 1μg was directly applied to soil prior to planting. Alternatively abamectin was loaded into liposomes at either 5μg or 1 μg and applied to soil prior to planting. Gall formation was detected. […] Therefore, liposomal abamectin formulations enhance root length as compared to non-liposomal abamectin formulations.

nematode = settings: comparison figure; cited from earlier work

Compound: BrCCBr [EDB, ethylene dibromide]
- population killed [1]: 75%
- survival (citrus nematode): did not survive

Compound: CS/C(C)=N\OC(=O)N(C)SN(C)C(=O)O/N=C(\C)SC [Larvin (Thiodicarb), Thiodicarb]
- Root-Knot larvae (J2) Alive (Root-Knot larvae (J2); 200 ug): 76 and 86 and 89
- Root-Knot larvae (J2) Dead (Root-Knot larvae (J2); 200 ug): 23 and 14 and 11
- Root-Knot larvae (J2) Alive (Root-Knot larvae (J2); 1 mg): 75 and 82 and 63
- Root-Knot larvae (J2) Dead (Root-Knot larvae (J2); 1 mg): 25 and 18 and 37
- Root-Knot larvae (J2) Alive (Root-Knot larvae (J2); 2 mg): 70 and 85 and 65
- Root-Knot larvae (J2) Dead (Root-Knot larvae (J2); 2 mg): 30 and 15 and 35
- Root-Knot larvae (J2) Alive, non-mobile (Root-Knot larvae (J2); 10 mg): 70 non-mobile and 80 non-mobile
- Root-Knot larvae (J2) Dead (Root-Knot larvae (J2); 10 mg): 30 (2×) and 20
- concentration required to kill Root-Knot (J2) (Root-Knot larvae (J2); compared with Oxamyl, reason for elimination): required higher concentration to kill Root-Knot (J2)

Compound: CNC(=O)O/N=C(\SC)C(=O)N(C)C [Oxamyl (Vydate), Methyl N′N′-dimethyl-N-[(methylcarbamoyl)oxy]-1-thiooxamimidate]
- Root-Knot larvae (J2) Alive, non-mobile (Root-Knot larvae (J2); 200 ug): 60 non-mobile and 58 non-mobile and 50 non-mobile
- Root-Knot larvae (J2) Dead (Root-Knot larvae (J2); 200 ug): 40 and 42 and 50
- Root-Knot larvae (J2) Alive (Root-Knot larvae (J2); 1 mg): 0
- Root-Knot larvae (J2) Dead (Root-Knot larvae (J2); 1 mg): 100
- Root-Knot larvae (J2) Alive (Root-Knot larvae (J2); 2 mg): 0
- Root-Knot larvae (J2) Dead (Root-Knot larvae (J2); 2 mg): 100
- Root-Knot larvae (J2) Alive (Root-Knot larvae (J2); 10 mg): 0
- Root-Knot larvae (J2) Dead (Root-Knot larvae (J2); 10 mg): 100
- mortality at 100 µg/mL (Root-Knot larvae (J2); Meloidogyne incognita, 100 ug/ml): 100%
- mortality at 200 µg/mL (Root-Knot larvae (J2); Meloidogyne incognita, 200 ug/ml): 100%
- state of larvae (root-knot nematodes): dead or paralyzed

Compound: abamectin [non-liposomal abamectin]
- gall formation ([2]; 1 μg applied to soil prior to planting, FIG. 3): most gall formulation
- root necrosis ([2]; 5 μg applied to soil prior to planting, FIG. 4): most root necrosis
- amount of abamectin needed to treat nematodes when not encapsulated by liposomes (nematode): about 2982 mg/acre
